Here are results for three molecules from BindingDB's records for doi:10.1021/jm00126a009 (Northeastern University, 1989).

Assay [1] is described as follows: Compound was evaluated for the ability to displace [3H]spiperone at Dopamine receptor D2 in porcine anterior pituitary gland as high affinity state.
Assay [2] in a line: Compound was evaluated for the ability to displace [3H]spiperone at Dopamine receptor D2 in porcine anterior pituitary gland as low affinity state.
Assay in assay [3]: as above
This is another data set of the same source.

Assay [4] can be described thus: Compound was evaluated for the ability to displace [3H]spiperone at dopamine receptor in porcine anterior pituitary gland as high affinity state.

Each structure is given as a SMILES string. pKd: −log10 of the molar value.

With `CN1CCc2cc(Br)cc3c2[C@H]1Cc1ccc(O)c(O)c1-3`, the pKd in assay [1] was 8.17; in assay [2] it was 6.14.
`CN1CCc2cc(N)cc3c2[C@H]1Cc1ccc(O)c(O)c1-3`: the pKd in assay [3] was 7.70; in assay [2], 5.48.
On to `CN1CCc2cc(F)cc3c2[C@H]1Cc1ccc(O)c(O)c1-3` [(R)-2-Fluoro-6-methyl-5,6,6a,7-tetrahydro-4H-dibenzo[de,g]quinoline-10,11-diol], for which the pKd is 7.03 in assay [1] and 9.37 in assay [4].
